What was measured:
Murine polyomavirus [1] = assay: Antiviral activity against Murine polyomavirus LID1 ATCC VR-252 in mouse UC1B cells assessed as reduction of virus-induced cytopathogenicity; format: functional, cell-based; details: Alphapolyomavirus muris
[2] = Selectivity index, ratio of CC50 for mouse UC1B cells to EC50 of Murine polyomavirus LID1; format: functional
[3] = Selectivity index, ratio of CC50 for african green monkey BSC1 cells ot EC50 for Simian virus 40 PML2 DAR; format: functional, BSC-1
[4] = Selectivity index, ratio of CC50 for mouse UC1B cells to EC50 of Murine polyomavirus MN/RDE Toronto; format: functional
[5] = Selectivity index, ratio of CC50 for african green monkey BSC1 cells ot EC50 for Simian virus 40 PML1 EK; format: functional, BSC-1
Simian virus 40 [6] = assay: Antiviral activity against Simian virus 40 A2895 in african green monkey BSC1 cells assessed as reduction of virus-induced cytopathogenicity; format: functional, organism-based; details: Betapolyomavirus macacae, A2895, BSC-1
Murine polyomavirus [7] = assay: Antiviral activity against Murine polyomavirus PTA in mouse UC1B cells assessed as reduction of virus-induced cytopathogenicity; format: functional, cell-based; details: Alphapolyomavirus muris
Murine polyomavirus [8] = assay: Antiviral activity against Murine polyomavirus 2PTA2 in mouse UC1B cells assessed as reduction of virus-induced cytopathogenicity; format: functional, cell-based; details: Alphapolyomavirus muris, 2PTA2, UC1B
Simian virus 40 [9] = assay: Antiviral activity against Simian virus 40 PML2 DAR in african green monkey BSC1 cells assessed as reduction of virus-induced cytopathogenicity; format: functional, organism-based; details: Betapolyomavirus macacae, BSC-1
[10] = Selectivity index, ratio of CC50 for mouse UC1B cells to EC50 of Murine polyomavirus 2PTA2; format: functional
[11] = Cytotoxicity against african green monkey BSC1 cells; format: cell-based, BSC-1; details: chlorocebus aethiops
[12] = Selectivity index, ratio of CC50 for african green monkey BSC1 cells ot EC50 for Simian virus 40 A2895; format: functional, BSC-1
[13] = Cytotoxicity against mouse UC1B cells; format: cell-based
Murine polyomavirus [14] = assay: Antiviral activity against Murine polyomavirus MN/RDE Toronto in mouse UC1B cells assessed as reduction of virus-induced cytopathogenicity; format: functional, cell-based; details: Alphapolyomavirus muris
Simian virus 40 [15] = assay: Antiviral activity against Simian virus 40 PML1 EK in african green monkey BSC1 cells assessed as reduction of virus-induced cytopathogenicity; format: functional, organism-based; details: Betapolyomavirus macacae, BSC-1
[16] = Selectivity index, ratio of CC50 for mouse UC1B cells to EC50 of Murine polyomavirus PTA; format: functional
Simian virus 40 [17] = assay: Antiviral activity against Simian virus 40 A2895 in african green monkey BSC1 cells assessed as reduction of virus yield; format: functional; details: Betapolyomavirus macacae, A2895, BSC-1
Murine polyomavirus [18] = assay: Antiviral activity against Murine polyomavirus LID1 in UC1B cells assessed as reduction of virus yield; format: functional; details: Alphapolyomavirus muris
Murine polyomavirus [19] = assay: Antiviral activity against Murine polyomavirus PTA in UC1B cells assessed as reduction of virus yield; format: functional; details: Alphapolyomavirus muris

SMILES	EC50 (Murine polyomavirus [1]) [µM]	EC50 (Simian virus 40 [6]) [µM]	EC50 (Murine polyomavirus [7]) [µM]	EC50 (Murine polyomavirus [8]) [µM]	EC50 (Simian virus 40 [9]) [µM]	EC50 (Murine polyomavirus [14]) [µM]	EC50 (Simian virus 40 [15]) [µM]	Ratio CC50/EC50 [2]	Ratio CC50/EC50 [3]	Ratio CC50/EC50 [4]	Ratio CC50/EC50 [5]	Ratio CC50/EC50 [10]	CC50 [11] [µM]	Ratio CC50/EC50 [12]	CC50 [13] [µM]	Ratio CC50/EC50 [16]	EC99 (Simian virus 40 [17]) [µM]	EC99 (Murine polyomavirus [18]) [µM]	EC99 (Murine polyomavirus [19]) [µM]
CCCCCCCCCCCCCCCCOCCOP1(=O)CO[C@@H](Cn2cnc(N)nc2=O)CO1 (stereo not given in full)	0.88	0.3	0.53	0.56	0.34	0.55	0.23	21.4	39.4	34.2	58.3	33.6	13.4	44.7	18.8	35.5	0.26	0.81	0.43
Nc1ncnc2c1ncn2CCOCP(=O)(O)O [ADEFOVIR]	9.9	158	11.3	12.8	126	9.5	168	2.4	1.7	2.5	1.3	1.9	210	1.3	24.2	2.1	–	–	–
Nc1ccn(C[C@@H](CO)OCP(=O)(O)O)c(=O)n1.O.O [CIDOFOVIR]	18.7	19	16.2	19	17.8	13	19.3	9	23.8	13	21.9	8.9	424	22.3	169	10.4	–	–	–
Nc1ccn(C[C@H]2COP(=O)(O)CO2)c(=O)n1 [CYCLIC CIDOFOVIR]	42	22.2	54.4	61.2	18.5	34.9	20.8	13.8	>=36.3	16.7	>=32.3	9.5	≥ 672	>=30.3	582	10.7	–	–	–
Nc1ncnc2c1ncn2C[C@H]1COP(=O)(O)CO1	58.6	32.6	65.3	47.4	38.3	39	49.8	3.2	9.7	4.9	7.5	4	371	11.4	190	2.9	–	–	–
Nc1nccc2c1ncn2C[C@@H](CO)OCP(=O)(O)O	13.9	13.9	14.9	11.6	7.3	9.9	6	3.5	6	4.9	7.3	4.2	43.7	3.1	49	3.3	–	–	–

The remaining compounds from weak to strong by EC50 (Murine polyomavirus [1]), led by results:

EC50 (Murine polyomavirus [1]) [µM]	EC50 (Simian virus 40 [6]) [µM]	EC50 (Murine polyomavirus [7]) [µM]	EC50 (Murine polyomavirus [8]) [µM]	EC50 (Simian virus 40 [9]) [µM]	EC50 (Murine polyomavirus [14]) [µM]	EC50 (Simian virus 40 [15]) [µM]	SMILES	Ratio CC50/EC50 [2]	Ratio CC50/EC50 [3]	Ratio CC50/EC50 [4]	Ratio CC50/EC50 [5]	Ratio CC50/EC50 [10]	CC50 [11] [µM]	Ratio CC50/EC50 [12]	CC50 [13] [µM]	Ratio CC50/EC50 [16]	EC99 (Simian virus 40 [17]) [µM]	EC99 (Murine polyomavirus [18]) [µM]	EC99 (Murine polyomavirus [19]) [µM]
38.1	19.8	32	20.6	19.1	17.1	19.8	Nc1ncn(C[C@H]2COP(=O)(O)CO2)c(=O)n1	3.7	16.9	8.1	16.3	6.8	323	16.3	139	4.3	–	–	–
16.1	16.1	13.9	13.9	16.1	9.6	14.6	Nc1ncn(C[C@@H](CO)OCP(=O)(O)O)c(=O)n1	18.2	27.4	30.6	29.9	21.1	436	27.1	294	21.1	–	–	–
13.2	12.3	14.5	9.5	10.2	9.5	15.4	Nc1ncnc2c1ncn2C[C@@H](CO)OCP(=O)(O)O	1.8	8.8	2.6	5.8	2.6	89.3	7.3	24.3	1.7	–	–	–
12.1	148	9.5	15.9	181	21.2	140	Nc1cc(OCCOCP(=O)(O)O)nc(N)n1	3.6	0.4	2	0.5	2.7	72.8	0.5	43.2	4.5	–	–	–
9.1	49.3	8.2	6.3	47.1	7.2	33.6	Nc1nc(N)c2ncn(C[C@@H](CO)OCP(=O)(O)O)c2n1	2.4	4.6	3	6.5	3.4	217	4.4	21.4	2.6	–	–	–
8.2	72.8	10.9	13.9	112	11.2	73.1	Nc1cc(OC[C@@H](CO)OCP(=O)(O)O)nc(N)n1	1.3	1.2	0.9	1.9	0.8	140	1.9	10.5	1	–	–	–

Source: ChEMBL document CHEMBL1145476, “Inhibitory activities of three classes of acyclic nucleoside phosphonates against murine polyomavirus and primate simian virus 40 strains” (Antimicrob Agents Chemother, 2007)
